How the values were obtained:
[1] = tested on: Apis mellifera Carniolan foraging worker honeybees; assay: Proboscis extension response (PER) assay with bees conditioned to 2-heptanone; type: in vivo; conditions: 0.5% compound in Triton X-100/water on filter paper, 4 s exposure; only bees giving PER with 2-heptanone and not with water or 15% Triton X-100 controls counted
Procedure: To determine whether a living honeybee can recognize a candidate compound, these compounds were tested using a proboscis extension response (PER) assay using classical conditioning approaches. Proboscis extension response conditioning is a case of appetitive learning, in which bees learn to associate odor stimuli with sucrose reward in the laboratory. In this case, bees were conditioned to produce a PER to 2-heptanone as the conditioned stimulus and a sugar reward as the unconditioned stimulus. These trained bees were then exposed to an odor pulse of a candidate compound to test whether a candidate compound would also produce a PER. If the candidate compound “mimics” 2-heptanone then the honeybee will extend its proboscis.
For conditioning procedures, Apis mellifera Carniolan foraging worker honeybees were obtained from a local apiary (typically 60 bees per shipment). The honeybees were held overnight in insect cages with food and water freely available, in an environmentally controlled room on a light cycle similar to the ambient cycle at the time of the assay.
For conditioning procedures, all tests were done in an odorant delivery apparatus set inside a fume hood. The apparatus comprised a set of open-ended, horizontal, 3 cm diameter by 10 cm long plastic tubes. Each tube was designed where a honeybee could be positioned at the distal end of a tube, with the opening at the other end of the tube located proximal to an inlet of the fume hood. To deliver an odorant, room air was pumped by a diaphragm pump through a particle filter via 0.25 inch plastic tubing at approximately 0.7 m/sec. The air flow passes into the headspace above an odorant (0.5% [v/v] 2-heptanone dissolved in odorless light paraffin oil) contained in a 100 mL bottle. The headspace air then passes through another plastic tube to a manifold of 4-way valves, each of which was attached near the proximal end of a plastic tube containing a bee. Each bee was exposed separately for a desired time period to the odorant by opening and closing the appropriate valve. When each valve was closed, the odor was flushed away immediately by the continuous fume hood air stream.
To train a honeybee to respond to a conditioned and unconditioned stimuli, bees were placed, without anesthesia, in individual 1.5 mL micro-centrifuge holding tubes and held overnight without access to food or water. The holding tubes containing the starved bees were placed in racks in groups of eight. One rack at a time was placed behind the odorant delivery apparatus so that each bee's head is centered at the distal end of a horizontal plastic tube. Each bee was exposed to the 2-heptanone odorant alone for four seconds, and then while being fed an 80% sucrose solution for and additional three seconds. The sucrose solution was delivered on a piece of saturated filter paper held in forceps. […] Positive and negative responses were recorded. A positive PER was scored when a bee extended its proboscis before the sucrose appeared. In a typical trial, 48 individual bees were subjected to conditioning.
After conditioning, honeybees were tested with the candidate compounds the same day or on the following day or, most commonly, both. When held overnight, bees were fed with sucrose and kept in their holding tubes. When tested the day after training, bees were given one or more rounds of conditioning with 2-heptatone to refresh their memories. Candidate compounds stocks were made at 5% (w/v) in polyoxyethylene octyl phenyl ether (TRITON® X-100), a non-ionic detergent/surfactant, and stored at 4° C. […] Test solutions were made fresh daily by mixing stock solutions with water for a final compound concentration of 0.5%. A solution of 0.5% 2-heptanone in paraffin oil was used as a positive control.

OBP2 = assay: Fluorescent-quench ligand-protein-binding assay (OBP2 binding); design: species or system Apis mellifera
Excerpt: To identify a honeybee repellent disclosed herein, candidate compounds were screened based upon the fact that 2-heptanone is an established repellent of bees. 2-heptanone is thought to mediate its behavioral response through binding to a specific odorant-binding protein called OBP2. […] Such assays are generally known in the art. See, e.g., Briand, et al., Ligand-Binding Properties and Structural Characterization of a Novel Rat Odorant-Binding Protein Variant, Eur. J. Biochem. 267(10): 3079-3089 (2000); Briand, et al., Ligand Binding and Physico-Chemical Properties of ASP2, A Recombinant Odorant-Binding Protein From Honeybee (Apis mellifera L.), Eur. J. Biochem. 268(3): 752-760 (2001); Briand, et al., Characterization of a Chemosensory Protein (ASP3c) from Honeybee (Apis mellifera L.) as a Brood Pheromone Carrier, Eur. J. Biochem. 269(18): 4586-4596 (2002), each of which is hereby incorporated by reference in its entirety.

[2] = tested on: Apis mellifera Carniolan foraging worker honeybees; assay: Choice test in a free-flight box apparatus; type: in vivo; conditions: for P (probability that a honeybee will return to a test dish, nP divided by n): control likelihood without compound 47.5%; for nP (number of tests a honeybee returned to a preferred test dish): free-flight box, 2 μL of 0.05-0.5% compound on filter papers under honey dish
Excerpt: To determine whether living honeybees will choice to move towards a source of a candidate compound, these compounds will be assayed using a choice test in a free-flight box apparatus.
All tests will be done in a free-flight box apparatus. The apparatus comprises a 244 cm long×46 cm deep×30 cm high clear plastic box including two equally-sized independent testing chambers, each with 10 cm diameter air inlets that admit filtered room air, separated by a smaller central chamber with a screened air outlet to each testing chamber. Air can be pulled through the sealed box via a 10 cm diameter duct from the air outlet using an AQE Fume Fighter 500 fume extractor (BPA Air Quality Solutions, LLC, Charleston, S.C.), which removes the test odors using activated charcoal and HEPA filters. The box is housed in an environmentally controlled room with overhead illumination timed to correspond to the current ambient light cycle including 2 additional sets of lights timed to approximate crepuscular lighting conditions. The bottom of the apparatus will be lined with clean absorbent paper marked with a 4×9 grid pattern, forming 12 cm×12 cm squares with marked coordinates.
Apis mellifera Carniolan foraging worker honeybees will be obtained from a local apiary (typically 60 bees per shipment). Thirty honeybees will be put into each testing chamber and will be allowed to acclimate for 24 hours with food and water freely available. At the beginning of each test day all food will be removed from the test chamber, but water will be continually available throughout all tests. For each test, approximately 0.3 g of organic, raw orange blossom honey will be added to each clean small plastic weigh boat (Cole-Palmer). The honey boats will be placed in small plastic culture dishes, which will be distributed in the marked squares in the chambers. The positions of the dishes on the grid for a set of trials will be chosen to avoid the bees' preferred resting area so that they will have to find the food actively, but the same dish positions will be maintained for a given set of trials. We will use seven dishes of honey: six to which the bees will have access and a seventh that will have a screened lid. The honey in each boat will be weighed on an analytical balance before and after the test, with the screened sample as a control for evaporative loss. The fume extractor will be left off during the experimental trails, and will be turned on to clear the air after the test dishes are covered and removed from the chamber at the end of each trial.
Based on the observation that bees tend to return to dishes in the same position where they have fed before, each set of trials with each group of bees began with “Pattern Identification” tests to see which dishes lose the most weight, reflecting the most feeding. Once bees are consuming an acceptable amount in 10-15 min, typically in 1-2 trials, a set of test compound trials will begin. The test compound will be pipetted onto pieces of filter paper placed on the dish bottom below the boat containing a fresh, weighed honey sample so that the test compound will be inaccessible to the bees. We used 2 μL of a candidate compound at a concentration of 0.05-0.5%, in Triton X-100 or paraffin oil, on each of four pieces of filter paper per dish. The test-solution dishes will be set at the same positions as the one or two dishes favored in the preceding Pattern Identification trial. To eliminate interference from the solvent, the other dishes without the test substance will contain the same volume of the appropriate solvent on filter papers as the test solution dishes. The bees will be allowed to feed for 10-15 minutes. Bee movements will be recorded by a small, wide-angle digital video camcorder (HD Hero 960; GoPro, Halfmoon Bay, Calif.) placed on a tripod in front of the test chamber. […]

Row | SMILES | 2-heptanone positive bees testing positive to compound [1] | OBP2 binding characteristic of compound (OBP2) | P (probability that a honeybee will return to a test dish, nP divided by n) [2] | nP (number of tests a honeybee returned to a preferred test dish) [2]
1 | Oc1ccc2ccccc2c1C=NNc1ccccn1 [compound 66, 2-hydroxy-1-naphthaldehyde 2-pyridinylhydrazone] | 24.4% | Moderate (Moderate, indicates that 50% or less of the compound bound to OBP2.) | 0.379 | 22
2 | COc1cc(C2N=C(c3ccccc3)N=C(c3ccccc3)N2)ccc1O (stereo not shown) [compound 67, 4-(4,6-diphenyl-1,2-dihydro-1,3,5-triazin-2-yl)-2-methoxyphenol] | 26.5% | Moderate (Moderate, indicates that 50% or less of the compound bound to OBP2.) | 0.321 | 9
3 | CC(=O)c1ccccc1NC(=O)C1CCC(C(=O)Nc2ccccc2C(C)=O)S1 (stereo not shown) [compound 68, N,N′-bis(2-acetylphenyl)tetrahydro-2,5-thiophenedicarboxamide] | 20.8% | Moderate (Moderate, indicates that 50% or less of the compound bound to OBP2.) | 0.5 | 2
4 | Oc1ccc2ccccc2c1C=Nc1ccc(I)cc1 [compound 74, 1-{[(4-iodophenyl)imino]methyl}-2-naphthol] | 25.0% | Moderate (Moderate, indicates that 50% or less of the compound bound to OBP2.) | 0.45 | 18
5 | Nc1c(C(=O)c2ccccc2)sc2nc(-c3cccnc3)ccc12 [compound 75, [3-amino-6-(3-pyridinyl)thieno[2,3-b]pyridin-2-yl](phenyl)methanone] | 25.0% | Moderate (Moderate, indicates that 50% or less of the compound bound to OBP2.) | 0.542 | 13
6 | CCOc1ccccc1C=NN1C(=O)c2ccccc2C1=O [compound 79] | 23.1% | Moderate (Moderate, indicates that 50% or less of the compound bound to OBP2.) | 1 | 2
7 | c1ccc(Oc2cc(-n3cccn3)nc(-c3ccccc3)n2)cc1 [compound 80, 4-phenoxy-2-phenyl-6-(1H-pyrazol-1-yl)pyrimidine] | 20.0% | Moderate (Moderate, indicates that 50% or less of the compound bound to OBP2.) | 0.333 | 2
8 | CCOC(=O)c1cc(CC)sc1NC(=O)c1ccccc1 [compound 81, ethyl 2-(benzoylamino)-5-ethyl-3-thiophenecarboxylate] | 37.5% | Moderate (Moderate, indicates that 50% or less of the compound bound to OBP2.) | 0.333 | 6
9 | Oc1c(Br)cc(Cl)cc1C=Nc1ccccn1 [compound 83, 2-bromo-4-chloro-6-[(2-pyridinylimino)methyl]phenol] | 47.7% | Moderate (Moderate, indicates that 50% or less of the compound bound to OBP2.) | 0.278 | 10
10 | O=C(NN=Cc1ccc(-c2cccc(Cl)c2Cl)o1)c1ccncc1 [compound 113] | 11.1% | Moderate (Moderate, indicates that 50% or less of the compound bound to OBP2.) |  | 
11 | COc1ccc(-c2ccc(C=NNC(=O)c3ccccn3)o2)cc1Cl [compound 114] | 22.2% | Moderate (Moderate, indicates that 50% or less of the compound bound to OBP2.) |  | 
12 | CCN1C(=O)C(=Cc2cc(Br)ccc2OC)SC1=S [compound 115] | 40.0% | Moderate (Moderate, indicates that 50% or less of the compound bound to OBP2.) |  | 
13 | CCN1C(=O)C(=Cc2cc(Br)ccc2O)SC1=S [compound 116] | 25.0% | Moderate (Moderate, indicates that 50% or less of the compound bound to OBP2.) |  | 
14 | O=C(c1ccccc1)N1N=C(c2ccccc2)CC1(O)C(F)(F)F (stereo not shown) [compound 119] | 60.0% | Moderate (Moderate, indicates that 50% or less of the compound bound to OBP2.) |  | 
